Experimental data reported in patent publication US20130252286A1, “TRANSFORMANT OF YEAST OF GENUS SCHIZOSACCHAROMYCES, AND METHOD FOR PRODUCING SAME” (ASAHI GLASS COMPANY, LIMITED, priority 2010, published 2013).

Experiments:
crude AaBGL1 [1] = biological target: T1, crude AaBGL1 (Aspergillus aculeatus, UniProt P48825); test: Substrate specificity; format: biochemical; set-up: P3 secretion signal (N, cleaved yes); made in house; host or cells: Schizosaccharomyces pombe ASP3326 strain (transformed with pSL6P3AaBGL1); culture supernatant, ammonium sulfate treatment and ultrafiltration, crude enzyme; settings: 0.5% (w/v) ICOS, 0.5% (w/v) cellobiose, 1 mM pNPG, 1 mM pNP-cellobiose; for Specific activity: pH 4.5, 37° C., 10 minutes; for Relative activity: relative to cellobiose
Description: Measured in accordance with the activity measurement method by using various substrates. The specific activities and relative activities of the enzyme to each of 0.5% (w/v) ICOS, 0.5% (w/v) cellobiose, 1 mM pNPG, and 1 mM pNP-cellobiose are shown in Table 6.
To 100 μl of 2 mM p-nitrophenyl-β-D-cellobioside (hereinafter referred to as pNP-cellobiose), 10 μl of 1 M sodium acetate buffer solution (pH 4.5) and 40 μl of water were added, followed by addition of 50 μl of the diluted enzyme sample to cultivate for 10 minutes at 37° C. 100 μl of the reaction mixture was mixed with 100 μl of 2% sodium carbonate solution to terminate reaction, and then the amount of liberated p-nitrophenol was colorimetrically measured at a wavelength of 450 nm.
The amount of enzyme that produces 1 μmol of p-nitrophenol per minute was defined as 1 U.
(§1) To 100 μl of 1% cellobiose solution, 10 μl of 1M sodium acetate buffer solution (pH 4.5) was added, followed by addition of 90 μl of the diluted enzyme sample to cultivate for 10 minutes at 37° C. 50 μl of 1N HCl was added to terminate reaction, and then 50 μl of a neutralizing solution comprised of 1M Tris solution:2N sodium hydroxide solution in a ratio of 4:1 was added for neutralization to measure the amount of glucose in the mixture by using glucostat method (Glucose kit, Glucose CII-Test Wako, manufactured by Wako Pure Chemical Industries).
The amount of enzyme that produces 1 μmol of glucose per minute was defined as 1 U.
as §1, with “insoluble cellooligosaccharide (hereinafter referred to as ICOS)” for “cellobiose”

crude AaBGL1 [2] = biological target: T1, crude AaBGL1; test: Inhibition by various sugar; format: biochemical; set-up: P3 secretion signal (N, cleaved yes); made in house; culture supernatant, ammonium sulfate treatment and ultrafiltration, crude enzyme; settings: 1 mM pNPG; for inhibition of crude AaBGL1 by the sugar (in words): 0.1 to 10 mM sugar
Description: To 10 μl of 20 mM p-nitrophenyl-β-D-glucoside (hereinafter abbreviated as pNPG), 10 μl of 1M sodium acetate buffer solution (pH 4.5) and 130 μl of water were added, and then 50 μl of the diluted enzyme sample was introduced for reacting them at 37° C. for 10 minutes. 100 μl of the reaction mixture was mixed with 100 μl of 2% sodium carbonate solution to terminate reaction, and then the amount of liberated p-nitrophenol was colorimetrically measured at a wavelength of 450 nm.
By using 1 mM pNPG containing various sugar (0.1 mM, 1.0 mM, 10 mM) as a substrate, the enzyme was reacted in accordance with the activity measurement method. The numerical values shown in Table 5 indicate the ratio (%) of the measured enzymatic activity to the enzymatic activity under a condition where no sugar is contained.

Thermostability test = format: physicochemical; settings: crude enzyme, treated at each temperature for 10 minutes
Description: The enzyme was treated at each temperature for 10 minutes, and then reacted by using 1 mM pNPG as a substrate and 50 mM acetate buffer solution (pH 4.5). […] (FIG. 5).
With regard to the each culture supernatant, the thermostability test was carried out in accordance with the thermostability measurement method described in Test Example 7 at a temperature of from 50 to 75° C.
With regard to the each purified sample, the thermostability test was carried out in accordance with the thermostability measurement method described in Test Example 7 at a temperature of from 50 to 75° C.

[3] = Optimal temperature test of the crude enzyme; format: biochemical; settings: 1 mM pNPG, 50 mM acetate buffer pH 4.5, 10 minutes
Description: By using 1 mM pNPG as a substrate and 50 mM acetate buffer solution (pH 4.5), the enzyme was reacted for 10 minutes at each temperature. […] (FIG. 3).

Glucose inhibition test = format: biochemical; settings: 1 mM pNPG
Description: With regard to glucose inhibition, the crude enzyme obtained in Test Example 6 was compared with a commercially available β-glucosidase Novozyme 188 (manufactured by Novozymes). The glucose inhibition activity was measured in accordance with the activity measurement method by using 1 mM pNPG as a substrate and adding glucose to the reaction mixture in a concentration of from 0 to 100 mM. The reaction temperature was 37° C., the pH was 4.5, and the reaction time was 10 minutes. The other reaction conditions were the same as in the activity measurement method described in Test Example 4.
With regard to the each culture supernatant, the glucose inhibition activity was measured in accordance with the activity measurement method, by using 1 mM pNPG as a substrate and adding from 0 to 100 mM of glucose to the reaction mixture.

Molecule	inhibition of crude AaBGL1 by the sugar (in words) (crude AaBGL1 [2])	ratio of enzymatic activity to activity without sugar (crude AaBGL1 [2]; sugar concentration 0.1 mM) [%]	ratio of enzymatic activity to activity without sugar (crude AaBGL1 [2]; sugar concentration 1.0 mM) [%]	ratio of enzymatic activity to activity without sugar (crude AaBGL1 [2]; sugar concentration 10 mM) [%]	other results
O=C[C@H](O)[C@@H](O)[C@H](O[C@@H]1O[C@H](CO)[C@@H](O)[C@H](O)[C@H]1O)[C@H](O)CO [Cellobiose]					Specific activity (crude AaBGL1 [1]): 42.1 U/mg; Relative activity (crude AaBGL1 [1]): 100%
O=C(CO)[C@@H](O)[C@H](O)[C@H](O)CO [Fructose]	not substantially inhibited	99	106	115	
O=C[C@H](O)[C@@H](O)[C@@H](O)[C@H](O)CO [Galactose]	not substantially inhibited	97	98	101	
OC[C@H]1O[C@@H](O[C@H]2[C@H](O)[C@@H](O)C(O)O[C@@H]2CO)[C@H](O)[C@@H](O)[C@H]1O (stereo partly drawn) [Lactose]	not substantially inhibited	99	100	100	
OC[C@H]1O[C@H](O[C@H]2[C@H](O)[C@@H](O)[C@H](O)O[C@@H]2CO)[C@H](O)[C@@H](O)[C@@H]1O [Maltose]	inhibited	99	93	68	
OC[C@@H](O)[C@@H](O)[C@H](O)[C@@H](O)CO [Sorbitol]	not substantially inhibited	98	99	101	
OC[C@H]1O[C@@](CO)(O[C@H]2O[C@H](CO)[C@@H](O)[C@H](O)[C@H]2O)[C@@H](O)[C@@H]1O [Sucrose]	not substantially inhibited	96	99	98	
O=C[C@H](O)[C@@H](O)[C@H](O)CO [Xylose]	not substantially inhibited	98	99	100	
O=[N+]([O-])c1ccc(O[C@@H]2O[C@H](CO)[C@@H](O[C@@H]3O[C@H](CO)[C@@H](O)[C@H](O)[C@H]3O)[C@H](O)[C@H]2O)cc1 [pNP-cellobiose, p-nitrophenyl-β-D-cellobioside]					Specific activity (crude AaBGL1 [1]): 9.3 U/mg; Relative activity (crude AaBGL1 [1]): 22%
O=[N+]([O-])c1ccc(O[C@@H]2O[C@H](CO)[C@@H](O)[C@H](O)[C@H]2O)cc1 [pNPG, p-nitrophenyl-β-D-glucoside]					Specific activity (crude AaBGL1 [1]): 25.7 U/mg; Relative activity (crude AaBGL1 [1]): 61%
AaBGL1: β-glucosidase 1 of Aspergillus aculeatus F-50 secreted by S. pombe ASP3326 strain, crude enzyme after ammonium sulfate and ultrafiltration (protein, listed as Aspergillus aculeatus) DELAFSPPFYPSPWANGQGEWAEAYQRAVAIVSQMTLDEKVNLTTGTGWELEKCVGQTGGVPRLNIGGMCLQDSPLGIRDSDYNSAFPAGVNVAATWDKNLAYLRGQAMGQEFSDKGIDVQLGPAAGPLGRSPDGGRNWEGFSPDPALTGVLFAETIKGIQDAGVVATAKHYILNEQEHFRQVAEAAGYGFNISDTISSNVDDKTIHEMYLWPFADAVRAGVGAIMCSYNQINNSYGCQNSYTLNKLLKAELGFQGFVMSDWGAHHSGVGSALAGLDMSMPGDITFDSATSFWGTNLTIAVLNGTVPQWRVDDMAVRIMAAYYKVGRDRLYQPPNFSSWTRDEYGFKYFYPQEGPYEKVNHFVNVQRNHSEVIRKLGADSTVLLKNNNALPLTGKERKVAILGEDAGSNSYGANGCSDRGCDNGTLAMAWGSGTAEFPYLVTPEQAIQAEVLKHKGSVYAITDNWALSQVETLAKQASVSLVFVNSDAGEGYISVDGNEGDRNNLTLWKNGDNLIKAAANNCNNTIVVIHSVGPVLVDEWYDHPNVTAILWAGLPGQESGNSLADVLYGRVNPGAKSPFTWGKTREAYGDYLVRELNNGNGAPQDDFSEGVFIDYRGFDKRNETPIYEFGHGLSYTTFNYSGLHIQVLNASSNAQVATETGAAPTFGQVGNASDYVYPEGLTRISKFIYPWLNSTDLKASSGDPYYGVDTAEHVPEGATDGSPQPVLPAGGGSGGNPRLYDELIRVSVTVKNTGRVAGDAVPQLYVSLGGPNEPKVVLRKFDRLTLKPSEETVWTTTLTRRDLSNWDVAAQDWVITSYPKKVHVGSSSRQLPLHAALPKVQ					thermostability: stable until (Thermostability test): about 60 °C; optimal temperature [3]: about 65 °C; resistance to glucose inhibition (comparison in words) (Glucose inhibition test; glucose 0 to 100 mM): more resistant to glucose inhibition than Novozyme 188; IC50 (Glucose inhibition test; glucose 0 to 100 mM, 37° C., pH 4.5, 10 minutes, read-out: glucose concentration (I50 value) at which 50% inhibition of the enzymatic activity occurs): 25 mM; activity maintained in the presence of glucose (Glucose inhibition test; 20 mM of glucose added): at least 50%
